Test results as given in US20240216412A1, “OXIDIZED NICOTINAMIDE ADENINE DINUCLEOTIDE (NAD+) PRECURSOR TREATMENT FOR HEART FAILURE ALLEVIATION INDEPENDENT OF MITOCHONDRIAL PROTEIN DEACETYLATION” (University of Washington, priority 2022, published 2024).

Experiments:
Assay type in all cases: in vivo, mouse
[1] = system: heart mRNA levels (Nppa, Ctgf, mtDNA encoded genes, PPARα/RXRα target genes); test: RT-PCR of heart transcripts and mitochondrial RNA junctions
Method: RNA Extraction and Quantitative Real-Time Polymerase Chain Reaction (RT-PCR). Total RNA was isolated from frozen heart tissue using the RNeasy fibrous Kit (Qiagen). Total RNA was reverse-transcribed into first-strand cDNA using Iscript (Bio-rad) according to manufacturer's guidelines. Real Time PCR was performed using SYBR green (Bio-Rad). Results of mRNA levels were normalized to 18S rRNA levels and reported as fold-change over control.

[2] = system: chronic pressure overload (TAC) induced heart failure in WT and Sirt3Ko mice; test: Survival, organ weight and histology (HW/TL, lung edema, fibrosis) after TAC
Method: Mice randomly received either NR (500 mg/kg body weight) (Canto et al., 2012) or vehicle saline daily for eight-weeks. Representative M-mode images for the echocardiography can be found in FIGS. 1C and 1D. Four weeks of chronic pressure overload caused similar declines in left ventricular fractional shortening (FS %) in mice randomized to NR or vehicle groups for either WT or Sirt3Ko (FIGS. 1E and 1F). […] Similar to NR treated WT, cardiac hypertrophy, left ventricular cavity dilation, and lung edema were less severe in Sirt3Ko TAO mice that received NR treatment (FIGS. 1B-1J). All echocardiography parameters can be found in Table 1 below.
Transverse aortic constriction. Male mice (3-4 months old) underwent transverse aortic constriction (TAC) or sham surgery. Briefly, mice were anesthetized with an IP injection of 130 mg/kg ketamine and 8.8 mg/kg xylazine in saline. Mice were intubated with 20 G cannula and ventilated 140 breaths per minute by small animal TOPO ventilator (Kent Scientific). The aortic arch was exposed via a left thoracotomy and by carefully separating the thymus. A constriction of the transverse aorta was generated by tying a 6-0 Ethilon ligature against a 27-gauge blunt needle around the aorta between the brachiocephalic and left common carotid arteries. Promptly the needle was removed and the chest and skin were closed by 5-0 polypropylene suture. The animal was removed from ventilation and kept on a heating blanket during recovery from anesthesia. SR buprenorphine (0.05 mg/kg) was administered subcutaneously for analgesia. Sham operated mice underwent all the same procedures as TAC mice excluding the constriction of the aorta. All mice were monitored every 12 h during the first 72 h post-surgery, followed by daily visits over the next 4 weeks.
Organ weight and histological assessment. Hearts from mice were harvested, rinsed briefly in 1×PBS, blotted dry, and weighed. Lungs from the same mice were harvested, weighed, then dried at 56 C. After 72 hours the lungs were weighed again. Heart weight (HW) and Lung weight (LW) was normalized to tibia length (TL) to assess changes in hypertrophic growth and lung edema, respectively. For histology, hearts were perfusion fixed with 10% neutral buffered formalin. Longitudinal sections of hearts were stained with Masson's Trichrome for assessment of fibrosis by the University of Washington Histology and Imaging Core.

[3] = system: retinol oxidation by SDRs; test: Retinoid measurements in heart tissue (LC-MS/MS); conditions: TAC hearts, WT and Sirt3Ko mice
Description: Retinoid measurements. Analysis of all-trans-retinyl ester palmitate (RP), all-trans,-retinol (ROL) was done in collaboration with Dr. Nina Isoherranen laboratory using previously established methods (Czuba et al., 2020). RP, ROL were purchased from Toronto Research Chemicals (North York, ON), and retinyl ester palmitate-d4 (RP-d4) and all-trans-retinol-d6 (ROLd6) were purchased from Cambridge Isotopes (Andover, MA). Blank human serum (DC MASS SPECT GOLD MSG4000) for standard curve and quality control matrix was purchased from Golden West Diagnostics (Temecula, CA). Solvents for liquid chromatography tandem mass spectrometry (LC-MS/MS) were Optima LC-MS grade and purchased from Fisher Scientific (Pittsburgh, PA). […]
RP and ROL concentrations were determined on an AB Sciex 5500 QTRAP mass spectrometer (AB Sciex, Foster City), coupled with an Agilent 1290 UHPLC (Agilent, Santa Clara, CA) using a Ascentis Express RP-amide column (2.1×150 mm, […]) and guard column (2.1×5 mm, 2.7 μm). […]
RP and ROL were detected in positive ion mode atmospheric pressure chemical ionization (APCI) mode using selected reaction monitoring (SRM). […] The CE was 25 V, DP was 60 V, entrance potential was 10 V, and collision exit potential was 10 V. Peaks were integrated and quantified using MultiQuant 2.1.1 (AB Sciex, Foster City, CA). […]

[4] = Sirt3Ko TAC mice, similar to NR treated WT

## NC(=O)c1ccc[n+]([C@@H]2O[C@H](CO)[C@@H](O)[C@H]2O)c1 [NR, Nicotinamide riboside chloride]
[1]; Sirt3ko and WT TAC mice
  Atrial natriuretic peptide (Nppa) levels: decreased
  Connective growth factor (Ctgf) levels: decreased
[1]; TAC hearts, Sirt3Ko and WT
  Expression of mtDNA encoded genes (mt-Nd1, mt-Cox1 and mt-Cytb): improved
  Expression of nuclear DNA encoded ETC genes: not changed
[1]; failing (TAC) hearts
  Expression of PPARα target genes (Acadm, Ucp2, Ucp3, Octn2, Cpt1b): increased
[1]; failing hearts of WT and Sirt3Ko mice
  Accumulation of mitochondrial RNA precursor fragments (Nd1-Nd2, Cox1-Cox2 junctions): removed the accumulation of RNA precursor fragments
[2]; Sirt3Ko TAC mice
  Fibrosis (Masson's trichrome): decreased fibrosis
[2]; [4]
  Cardiac hypertrophy: less severe
  Lung edema: less severe
[2]; WT and Sirt3Ko TAC mice, NR vs vehicle for eight weeks
  Mortality (Kaplan-Meier survival curve analysis): no significant difference in mortality
[3]
  Retinol and retinylpalmitate accumulation (bottleneck in SDR reactions): removed the “bottleneck”
